The values below are quoted from earlier work in patent US20150057617A1, “ANTI-MICROBIAL DRESSING, AN ANTI-MICROBIAL COMPOSITION AND USE THEREOF” (EMODIAL S.r.l., priority 2012, published 2015).

For the data set, the system named is fibroblasts.

`[H]/N=C(\N/C(=N/[H])NCCCCCCNC(=N)NC(=N)Nc1ccc(Cl)cc1)Nc1ccc(Cl)cc1` [chlorhexidine]: the cytotoxicity for fibroblasts result is recorded as “cytotoxic for fibroblasts”.
